From patent US11072628B2, “Nucleoside analogues for the treatment of parasitic infections” (UNIVERSITEIT GENT, priority 2017, dated 2021) come the findings set out here.

As a reminder, the EC50 is the concentration that produces a half-maximal response.

Read-outs that look alike come from different tables or passages of the source.

For data set [1], the system named is T. brucei Squib 427. As to the kind of experiment: In vitro drug susceptibility, T. brucei Squib 427 (resazurin). Format: cell-based, Trypanosoma brucei brucei. The protocol:
(§1) All trypanosome strains were cultured in the standard HMI-9 medium supplemented with 10% fetal bovine serum (FBS) at 37° C. in a 5% CO2 atmosphere.

Data set [2] relates to T. b. rhodesiense STIB-900. Description: In vitro drug susceptibility, T. b. rhodesiense STIB-900 (resazurin). Format: cell-based, Trypanosoma brucei rhodesiense. The protocol:
as §1
On the technique in general: The colour change of resazurin is a common sign of viable cells or microbes.

The test system of data set [3] is MRC-5 fibroblasts. As to the kind of experiment: in vitro. As for the experimental part:
(§2) Cytotoxicity was assayed against MRC-5 fibroblasts. Results are depicted in Tables 4 and 5.

Data set [4] concerns T. cruzi Tulahuen CL2 β galactosidase strain. As to the kind of experiment: T. cruzi Tulahuen CL2 β galactosidase strain on MRC-5SV2 cells (CPRG). It is filed as cell-based, Trypanosoma cruzi. As for the experimental part:
All cultures and assays were conducted at 37° C./5% CO2. […] The results were expressed as % reduction in parasite burdens compared to control wells from which an EC50 was calculated.

Data set [5] is described as follows: Cytotoxicity against MRC-5 fibroblasts. To be noted: human. As for the experimental part: as §2
The mark [6] stands for this setting: Table 1, average of 2-4 independent determinations, read-out: T. brucei brucei EC50.
Setting [7] is: Table 1, average of 2-4 independent determinations, read-out: T. brucei rhod. EC50.
Setting [8] is: Table 2, average of 2-3 independent replicates.
Where [9] appears, read: Table 4, average of 2-6 independent determinations, read-out: T.b. brucei EC50.
[10] abbreviates: Table 5, average of 2-4 independent replicates.
The mark [11] stands for this setting: Trypanosoma brucei, read-out: T.b. brucei EC50, Table 4, average of 2-6 independent determinations.
[12] abbreviates: MRC-5 fibroblasts, MRC-5 EC50, Table 4, cytotoxicity.
The mark [13] stands for this setting: MRC-5 fibroblasts, MRC-5 EC50, Table 5, cytotoxicity.
The mark [14] stands for this setting: Trypanosoma cruzi, TULAHUEN, MRC-5 SV2, Table 5, average of 2-4 independent replicates.
[15] abbreviates: Trypanosoma brucei, read-out: T. brucei brucei EC50, Table 1, average of 2-4 independent determinations.
Where [16] appears, read: Trypanosoma brucei, RHODESIENSE, read-out: T. brucei rhod. EC50.
Setting [17] is: MRC-5 fibroblasts, MRC-5 EC50, Table 1, cytotoxicity.
Setting [18] is: MRC-5 fibroblasts, MRC-5 EC50, Table 2, cytotoxicity.
Where [19] appears, read: Trypanosoma cruzi, TULAHUEN, MRC-5 SV2, Table 2, average of 2-3 independent replicates.
Where [20] appears, read: Trypanosoma brucei, RHODESIENSE, read-out: T.b. rhod. EC50.

As to “4-amino-5-bromo-N7-(2′,3′-anhydro-2′,3′-dideoxy-β-D-ribofuranosyl)-pyrrolo[2,3-d]pyrimidine [FH10632]”, the EC50 in data set [1] (setting [6]) was above 64 µM; in data set [2] (setting [7]), 59.9 µM; in data set [3], 45.6 µM; in data set [4] (setting [8]), above 64 µM.
For `Nc1ncnc2c1c(Cl)cn2[C@@H]1O[C@H](CO)[C@@H](O)[C@H]1O` [FH3169], the EC50 in data set [1] (setting [9]) was determined as 1.33 µM; in data set [2] (Table 4, average of 2-6 independent determinations, read-out: T.b. rhod. EC50), 0.12 µM; in data set [3], 33.4 µM; in data set [4] (setting [10]), 0.52 µM.
With `Nc1ncnc2c1c(-c1cnccn1)cn2[C@@H]1O[C@H](CO)[C@@H](O)[C@H]1O` [FH3179, 4-amino-5-(pyrazine-2-yl)-N7-(β-D-ribofuranosyl)-pyrrolo[2,3-d]pyrimidine], the EC50 in data set [1] (setting [11]) turned out to be 1.95 µM; in data set [5] (setting [12]), 0.55 µM; in data set [5] (setting [13]), 0.55 µM; in data set [4] (setting [14]) it was 0.86 µM. Besides, the “cytotoxicity, in words” value in data set [3] is listed as “submicromolar cytotoxicity”.
As for `Cn1cnc(-c2cn([C@@H]3O[C@H](CO)[C@@H](O)[C@H]3O)c3ncnc(N)c23)c1` [FH3182], in data set [1], the “anti-trypanosomal activity against T. brucei, in words” value is recorded as “low μM activity”. For the same molecule, the EC50 in data set [1] (setting [9]) was 4.76 µM; in data set [3], 23.4 µM; in data set [4] (setting [10]), 8.34 µM.
For the molecule `Nc1ncnc2c1c(-c1ccccc1)cn2[C@@H]1O[C@H](CO)C[C@H]1O` [FH8480, 4-amino-5-phenyl-N7-(3′-deoxy-β-D-ribofuranosyl)-pyrrolo[2,3-d]pyrimidine], the EC50 was found to be 7.9 µM in data set [1] (setting [6]), 1.2 µM in data set [2] (setting [7]), 61.8 µM in data set [3] and 2.57 µM in data set [4] (setting [8]).
As to `C[C@@H]1C[C@@H](O)[C@H](n2cc(Br)c3c(N)ncnc32)O1` [FH8492, 4-amino-5-bromo-N7-(3′-5′-dideoxy-β-D-ribofuranosyl)-pyrrolo[2,3-d]pyrimidine], the concentration for a half-maximal effect (EC50) is 33.5 µM in data set [1] (setting [6]), 20.1 µM in data set [2] (setting [7]), 10.2 µM in data set [3] and 12 µM in data set [4] (setting [8]).
As for `COc1ncnc2c1c(Br)cn2[C@@H]1O[C@H](CO)C[C@H]1O` [FH8497, 4-methoxy-5-bromo-N7-(3′-deoxy-β-D-ribofuranosyl)-pyrrolo[2,3-d]pyrimidine], the EC50 in data set [1] (setting [6]) was 2.62 µM; in data set [2] (setting [7]), 3.7 µM; in data set [3], 2.7 µM; in data set [4] (setting [8]) it was above 64 µM.
The matching figures for `O=c1[nH]cnc2c1c(Br)cn2[C@@H]1O[C@H](CO)C[C@H]1O` [FH8500, 4-oxo-5-bromo-N7-(3′-deoxy-β-D-ribfuranosyl)-pyrrolo[2,3-d]pyrimidine]: 8.09 µM, 2.26 µM, above 64 µM and above 64 µM.
In the case of `Nc1ncnc2c1c(-c1ccccn1)cn2[C@@H]1O[C@H](CO)C[C@H]1O` [FH8502, 4-amino-5-(pyrid-2-yl)-N7-(3′-deoxy-β-D-ribfuranosyl)-pyrrolo[2,3-d]pyrimidine], the EC50 in data set [1] (setting [6]) is 7.6 µM; in data set [2] (setting [7]), 37.3 µM; in data set [3], 33.7 µM; in data set [4] (setting [8]), 40.8 µM.
On to `CSc1ncnc2c1c(Br)cn2[C@@H]1O[C@H](CO)C[C@H]1O` [FH8510, 4-thiomethyl-5-bromo-N7-(3′-deoxy-β-D-ribofuranosyl)-pyrrolo[2,3-d]pyrimidine], for which the EC50 stood at 1.68 µM in data set [1] (setting [6]), 4.34 µM in data set [2] (setting [7]), 0.29 µM in data set [3] and 35.8 µM in data set [4] (setting [8]).
On the same counts, the results for `CNc1ncnc2c1c(Br)cn2[C@@H]1O[C@H](CO)C[C@H]1O` [FH8516, 4-methylamino-5-bromo-N7-(3′-deoxy-β-D-ribofuranosyl)-pyrrolo[2,3-d]pyrimidine] are 6.21 µM, 8.25 µM, above 64 µM and above 64 µM.
Regarding `CN(C)c1ncnc2c1c(Br)cn2[C@@H]1O[C@H](CO)C[C@H]1O` [FH8522, 4-dimethylamino-5-bromo-N7-(3′-deoxy-β-D-ribofuranosyl)-pyrrolo[2,3-d]pyrimidine], the EC50 is 1.88 µM in data set [1] (setting [15]); 0.79 µM in data set [2] (setting [16]); above 64 µM in data set [5] (setting [17]); above 64 µM in data set [5] (setting [18]); 20.9 µM in data set [4] (setting [19]).
`COc1ncnc2c1c(Br)cn2[C@@H]1O[C@H](CO)[C@@H](O)[C@H]1O` [FH9528, 4-methoxy-5-bromo-(N7-β-D-ribofuranosyl)-pyrrolo[2,3-d]pyrimidine]: the half-maximal effective concentration (EC50) in data set [1] (setting [11]) is 0.19 µM; in data set [2] (setting [20]) it was 0.04 µM; in data set [5] (setting [12]), above 64 µM; in data set [5] (setting [13]), above 64 µM; in data set [4] (setting [14]) it was 24.1 µM.
As for `CCOc1ncnc2c1c(Cl)cn2[C@@H]1O[C@H](CO)[C@@H](O)[C@H]1O` [FH9529, 4-ethoxy-5-chloro-N7-(β-D-ribfuranosyl)-pyrrolo[2,3-d]pyrimidine], the EC50 turned out to be 0.12 µM in data set [1] (setting [11]); 0.06 µM in data set [2] (setting [20]); 48.5 µM in data set [5] (setting [12]); 48.5 µM in data set [5] (setting [13]); 6.29 µM in data set [4] (setting [14]).
With `CCCCOc1ncnc2c1c(Cl)cn2[C@@H]1O[C@H](CO)[C@@H](O)[C@H]1O` [FH9530, 4-n-butoxy-5-chloro-N7-(β-D-ribofuranosyl)-pyrrolo[2,3-d]pyrimidine], the EC50 was determined as 0.07 µM in data set [1] (setting [11]); 0.04 µM in data set [2] (setting [20]); 1.32 µM in data set [5] (setting [12]); 1.32 µM in data set [5] (setting [13]); 0.45 µM in data set [4] (setting [14]).
On to `CC(C)Oc1ncnc2c1c(Cl)cn2[C@@H]1O[C@H](CO)[C@@H](O)[C@H]1O` [FH9531, 4-isopropoxy-5-chloro-N7-(β-D-ribfuranosyl)-pyrrolo[2,3-d]pyrimidine], for which the EC50 is 0.09 µM in data set [1] (setting [11]); 0.1 µM in data set [2] (setting [20]); above 64 µM in data set [5] (setting [12]); above 64 µM in data set [5] (setting [13]); 22.7 µM in data set [4] (setting [14]).
Consider `CCCOc1ncnc2c1c(Cl)cn2[C@@H]1O[C@H](CO)[C@@H](O)[C@H]1O` [FH9532, 4-n-propoxy-5-chloro-N7-(β-D-ribfuranosyl)-pyrrolo[2,3-d]pyrimidine], for which the EC50 in data set [1] (setting [11]) is 0.08 µM; in data set [2] (setting [20]), 0.08 µM; in data set [5] (setting [12]), 2.81 µM; in data set [5] (setting [13]), 2.81 µM; in data set [4] (setting [14]), 1.04 µM.
With `Nc1ncnc2c1c(-c1ccc(Cl)cc1Cl)cn2[C@@H]1O[C@H](CO)C[C@H]1O` [FH9581, 4-amino-5-(2,4-dichlorophenyl)-N7-(3′-deoxy-β-D-ribofuranosyl)-pyrrolo[2,3-d]pyrimidine], the EC50 is 19.6 µM in data set [1] (setting [15]); 7.3 µM in data set [2] (setting [16]); 19.6 µM in data set [5] (setting [17]); 19.6 µM in data set [5] (setting [18]); 0.5 µM in data set [4] (setting [19]).
In the case of `Nc1ncnc2c1c(Br)cn2[C@@H]1O[C@H](CO)C[C@@H]1O` [FH10628, 4-amino-5-bromo-N7-(2′-arabino-3′-deoxy-β-D-ribofuranosyl)-pyrrolo[2,3-d]pyrimidine], the EC50 in data set [1] (setting [15]) amounted to 0.13 µM; in data set [2] (setting [16]), 0.03 µM; in data set [5] (setting [17]) it was 45.6 µM; in data set [5] (setting [18]) it was 45.6 µM; in data set [4] (setting [19]) it was 1.47 µM.
Regarding `Nc1ncnc2c1ccn2[C@@H]1O[C@H](CO)C[C@@H]1O` [FH10650, 4-amino-N7-(2′-arabino-3′-deoxy-β-D-ribofuranosyl)-pyrrolo[2,3-d]pyrimidine], the EC50 was 6.62 µM in data set [1] (setting [15]); 0.6 µM in data set [2] (setting [16]); above 64 µM in data set [5] (setting [17]); above 64 µM in data set [5] (setting [18]); above 64 µM in data set [4] (setting [19]).
`Nc1ncnc2c1c(-c1cccc(Cl)n1)cn2[C@@H]1O[C@H](CO)[C@@H](O)[C@H]1O` [MS1034, 4-amino-5-(6-chloro-pyrid-2-yl)-N7-(β-D-ribofuranosyl)-pyrrolo[2,3-d]pyrimidine]: the EC50 was 1.75 µM in data set [1] (setting [11]); 0.62 µM in data set [2] (setting [20]); above 64 µM in data set [5] (setting [12]); above 64 µM in data set [5] (setting [13]); above 64 µM in data set [4] (setting [14]).
As for `Nc1ncnc2c1c(-c1ccc(F)cn1)cn2[C@@H]1O[C@H](CO)[C@@H](O)[C@H]1O` [MS1037, 4-amino-5-(5-fluoro-pyrid-2-yl)-N7-(β-D-ribofuranosyl)-pyrrolo[2,3-d]pyrimidine], the EC50 is 4.77 µM in data set [1] (setting [11]); 1.69 µM in data set [2] (setting [20]); above 64 µM in data set [5] (setting [12]); above 64 µM in data set [5] (setting [13]); 31.9 µM in data set [4] (setting [14]).
As to `Nc1ncnc2c1c(Br)cn2[C@@H]1O[C@H](CO)[C@@H](O)[C@H]1O` [TH1003], the half-maximal effective concentration (EC50) in data set [1] (Trypanosoma brucei, Table 4, average of 2-6 independent determinations, read-out: T.b. brucei EC50) is 1.24 µM; in data set [2] (Trypanosoma brucei, RHODESIENSE, Table 4, average of 2-6 independent determinations, read-out: T.b. rhod. EC50) it was 0.12 µM; in data set [5] (MRC-5 EC50) it was 33.3 µM; in data set [4] (setting [14]) it was 0.39 µM.
